From patent US11339130B1 (Blade Therapeutics, Inc., priority 2016, dated 2022) come the findings set out here.

What all share (type): biochemical
The target in one assay is T1, Human Calpain 1/NS1 (Homo sapiens, UniProt P07384).
T1 sequence (P07384 1-714): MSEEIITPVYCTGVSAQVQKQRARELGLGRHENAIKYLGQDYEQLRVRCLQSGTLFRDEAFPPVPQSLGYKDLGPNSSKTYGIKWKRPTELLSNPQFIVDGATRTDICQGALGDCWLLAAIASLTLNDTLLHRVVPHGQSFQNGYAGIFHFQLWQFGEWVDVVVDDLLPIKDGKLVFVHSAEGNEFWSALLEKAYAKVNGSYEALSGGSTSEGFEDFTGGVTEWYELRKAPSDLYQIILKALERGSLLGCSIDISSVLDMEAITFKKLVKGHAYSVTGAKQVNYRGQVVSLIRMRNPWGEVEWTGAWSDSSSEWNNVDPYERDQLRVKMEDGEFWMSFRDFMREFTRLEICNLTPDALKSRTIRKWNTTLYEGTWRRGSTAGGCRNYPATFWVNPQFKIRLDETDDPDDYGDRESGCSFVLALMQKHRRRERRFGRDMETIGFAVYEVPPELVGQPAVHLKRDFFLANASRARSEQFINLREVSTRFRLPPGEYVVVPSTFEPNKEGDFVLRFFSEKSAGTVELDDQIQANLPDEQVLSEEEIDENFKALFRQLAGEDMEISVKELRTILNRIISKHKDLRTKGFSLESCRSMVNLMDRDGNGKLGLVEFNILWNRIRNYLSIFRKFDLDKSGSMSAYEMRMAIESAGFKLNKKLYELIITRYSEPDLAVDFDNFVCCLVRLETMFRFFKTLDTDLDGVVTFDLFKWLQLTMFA
T1 sequence (P04632 1-268 partner): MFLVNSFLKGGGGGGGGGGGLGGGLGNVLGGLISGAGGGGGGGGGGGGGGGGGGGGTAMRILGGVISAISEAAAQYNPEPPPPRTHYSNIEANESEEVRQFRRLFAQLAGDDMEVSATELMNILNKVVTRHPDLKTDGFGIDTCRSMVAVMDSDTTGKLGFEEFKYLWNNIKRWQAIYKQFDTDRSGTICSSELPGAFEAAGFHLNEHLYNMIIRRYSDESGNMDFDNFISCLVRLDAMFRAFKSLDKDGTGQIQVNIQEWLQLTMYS
Briefly: Calpain inhibition continuous fluorescence (FRET) assay, Human Calpain 1/NS1. As to conditions: read-out: Human Calpain 1/NS1 IC50. The gist of the method:
(§1)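 Fluorescence increase from the cleaved 5-FAM/QXL 520 substrate, read at 490/520 nm, gave activity. Calcium was supplied with the substrate to activate the enzyme in situ after a 25C enzyme-inhibitor preincubation, and IC50s were fit from initial slopes.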

In another assay the target is T2, Human Calpain 2/NS1 (Homo sapiens, UniProt P17655).
T2 sequence (P17655 1-700): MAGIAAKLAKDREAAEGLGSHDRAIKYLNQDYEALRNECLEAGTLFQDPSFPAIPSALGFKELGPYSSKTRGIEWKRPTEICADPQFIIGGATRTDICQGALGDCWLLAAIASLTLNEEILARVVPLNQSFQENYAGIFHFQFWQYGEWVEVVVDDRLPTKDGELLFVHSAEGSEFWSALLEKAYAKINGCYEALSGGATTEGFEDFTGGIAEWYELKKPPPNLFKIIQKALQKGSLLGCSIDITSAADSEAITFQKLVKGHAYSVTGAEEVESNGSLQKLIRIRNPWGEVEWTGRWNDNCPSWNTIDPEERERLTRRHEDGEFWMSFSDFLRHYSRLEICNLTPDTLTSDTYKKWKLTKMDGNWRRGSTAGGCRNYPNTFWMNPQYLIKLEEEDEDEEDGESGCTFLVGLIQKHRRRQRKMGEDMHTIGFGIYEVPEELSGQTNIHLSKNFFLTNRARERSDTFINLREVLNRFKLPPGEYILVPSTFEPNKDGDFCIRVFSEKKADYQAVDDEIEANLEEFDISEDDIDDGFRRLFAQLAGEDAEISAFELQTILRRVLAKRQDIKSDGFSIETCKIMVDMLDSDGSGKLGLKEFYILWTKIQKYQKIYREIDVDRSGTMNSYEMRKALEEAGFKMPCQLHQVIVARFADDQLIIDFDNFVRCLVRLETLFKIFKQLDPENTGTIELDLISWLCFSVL
T2 sequence (P04632 1-268 partner): T1 sequence (P04632 1-268 partner)
Briefly: Calpain inhibition continuous fluorescence (FRET) assay, Human Calpain 2/NS1. As to conditions: read-out: Human Calpain 2/NS1 IC50. A digest of the protocol: as §1

A further assay addresses T3, Human Calpain 9/NS1 (Homo sapiens, UniProt O14815).
T3 sequence (O14815 1-690): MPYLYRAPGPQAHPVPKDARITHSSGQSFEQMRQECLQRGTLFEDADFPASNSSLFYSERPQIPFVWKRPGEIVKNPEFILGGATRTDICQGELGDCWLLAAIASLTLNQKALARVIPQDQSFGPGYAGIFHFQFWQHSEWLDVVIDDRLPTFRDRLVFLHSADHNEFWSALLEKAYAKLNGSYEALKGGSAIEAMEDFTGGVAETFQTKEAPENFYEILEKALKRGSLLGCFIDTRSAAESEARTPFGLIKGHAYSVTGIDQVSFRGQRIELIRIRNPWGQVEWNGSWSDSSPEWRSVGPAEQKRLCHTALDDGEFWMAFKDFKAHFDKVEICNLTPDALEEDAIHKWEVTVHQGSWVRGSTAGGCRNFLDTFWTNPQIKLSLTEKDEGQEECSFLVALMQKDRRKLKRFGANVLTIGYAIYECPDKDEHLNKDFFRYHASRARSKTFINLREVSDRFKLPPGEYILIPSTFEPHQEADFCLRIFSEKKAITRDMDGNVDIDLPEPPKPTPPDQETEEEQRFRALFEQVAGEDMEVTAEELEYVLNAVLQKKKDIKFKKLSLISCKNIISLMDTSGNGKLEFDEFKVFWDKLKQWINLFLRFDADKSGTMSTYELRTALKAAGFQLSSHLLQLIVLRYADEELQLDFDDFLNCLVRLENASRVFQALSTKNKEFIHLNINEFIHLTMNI
T3 sequence (P04632 1-268 partner): T1 sequence (P04632 1-268 partner)
In words: Calpain inhibition continuous fluorescence (FRET) assay, Human Calpain 9/NS1. Particulars: read-out: Human Calpain 9/NS1 IC50. The gist of the method:
as §1

Molecules are shown by their SMILES. Counter-ions that a name gives are not always drawn.

As for `Cn1cc(C(=O)NC(Cc2ccccc2)C(=O)C(N)=O)c(-c2n[nH]c3ccccc23)n1` (stereo not drawn) [Compound 482, N-(4-amino-3,4-dioxo-1-phenylbutan-2-yl)-3-(1H-indazol-3-yl)-1-methyl-1H-pyrazole-4-carboxamide], the values for the IC50 on Human Calpain 1/NS1, at Human Calpain 2/NS1 and at Human Calpain 9/NS1 were 3 to 10 µM, 3 to 10 µM and less than 3 µM, respectively.
On to `COc1cccc(-c2nn(C)cc2C(=O)NC(Cc2ccccc2)C(=O)C(N)=O)n1` (stereo not drawn) [Compound 487, N-(4-amino-3,4-dioxo-1-phenylbutan-2-yl)-3-(6-methoxypyridin-2-yl)-1-methyl-1H-pyrazole-4-carboxamide], for which the IC50 at Human Calpain 1/NS1 was 3 to 10 µM; at Human Calpain 2/NS1, less than 3 µM; at Human Calpain 9/NS1, less than 3 µM.
For `Cn1ncc(C(=O)NC(Cc2ccccc2)C(=O)C(N)=O)c1Cc1ccccc1` (stereo not drawn) [Compound 488, N-(4-amino-3,4-dioxo-1-phenylbutan-2-yl)-5-benzyl-1-methyl-1H-pyrazole-4-carboxamide], the IC50 at Human Calpain 1/NS1, at Human Calpain 2/NS1 and on Human Calpain 9/NS1 was 3 to 10 µM throughout.
Regarding `Cc1cnc(C(=O)NC(Cc2ccccc2)C(=O)C(N)=O)n1-c1ccccc1` (stereo not drawn) [Compound 490, N-(4-amino-3,4-dioxo-1-phenylbutan-2-yl)-5-methyl-1-phenyl-1H-imidazole-2-carboxamide], the results for the IC50 on Human Calpain 1/NS1, at Human Calpain 2/NS1 and at Human Calpain 9/NS1 were greater than 10 µM, 3 to 10 µM and less than 3 µM, respectively.
The matching figures for `NC(=O)C(=O)C(Cc1ccccc1)NC(=O)c1cnoc1Cc1ccccc1` (stereo not drawn) [Compound 491, N-(4-amino-3,4-dioxo-1-phenylbutan-2-yl)-5-benzylisoxazole-4-carboxamide]: less than 3 µM, less than 3 µM and 3 to 10 µM.
The matching figures for `Cn1cc(C(=O)NC(Cc2ccccc2)C(=O)C(N)=O)c(N2CCS(=O)(=O)CC2)n1` (stereo not drawn) [Compound 613, N-(4-amino-3,4-dioxo-1-phenylbutan-2-yl)-3-(1,1-dioxidothiomorpholino)-1-methyl-1H-pyrazole-4-carboxamide]: 3 to 10 µM, 3 to 10 µM and less than 3 µM.
For `Cn1cc(C(=O)NC(Cc2ccccc2)C(=O)C(N)=O)c(N2CCOCC2)n1` (stereo not drawn) [Compound 614, N-(4-amino-3,4-dioxo-1-phenylbutan-2-yl)-1-methyl-3-morpholino-1H-pyrazole-4-carboxamide], the IC50 on Human Calpain 1/NS1, on Human Calpain 2/NS1 and at Human Calpain 9/NS1 was 3 to 10 µM each time.
Turning to `Cn1cc(C(=O)NC(Cc2ccccc2)C(=O)C(N)=O)c(-c2cccs2)n1` (stereo not drawn) [Compound 615, N-(4-amino-3,4-dioxo-1-phenylbutan-2-yl)-1-methyl-3-(thiophen-2-yl)-1H-pyrazole-4-carboxamide], the IC50 on Human Calpain 1/NS1, on Human Calpain 2/NS1 and on Human Calpain 9/NS1 was less than 3 µM each time.
As to `Cn1cc(C(=O)NC(Cc2ccccc2)C(=O)C(N)=O)c(C2CC2)n1` (stereo not drawn) [Compound 616, N-(4-amino-3,4-dioxo-1-phenylbutan-2-yl)-3-cyclopropyl-1-methyl-1H-pyrazole-4-carboxamide], the IC50 on Human Calpain 1/NS1 is 3 to 10 µM; at Human Calpain 2/NS1, less than 3 µM; at Human Calpain 9/NS1, 3 to 10 µM.
Turning to `Cn1cc(C(=O)NC(Cc2ccccc2)C(=O)C(N)=O)c(C2CCOCC2)n1` (stereo not drawn) [Compound 617, N-(4-amino-3,4-dioxo-1-phenylbutan-2-yl)-1-methyl-3-(tetrahydro-2H-pyran-4-yl)-1H-pyrazole-4-carboxamide], the IC50 at Human Calpain 1/NS1 is 3 to 10 µM; on Human Calpain 2/NS1 it was less than 3 µM; at Human Calpain 9/NS1, less than 3 µM.
In the case of `Cc1nc(-c2cccc3c2OC(F)(F)O3)c(C(=O)NC(Cc2ccccc2)C(=O)C(N)=O)o1` (stereo not drawn) [Compound 618, N-(4-amino-3,4-dioxo-1-phenylbutan-2-yl)-4-(2,2-difluorobenzo[d][1,3]dioxol-4-yl)-2-methyloxazole-5-carboxamide], the IC50 at Human Calpain 1/NS1, at Human Calpain 2/NS1 and at Human Calpain 9/NS1 was less than 3 µM throughout.
Turning to `COc1ccc(F)c(-c2oncc2C(=O)NC(Cc2ccccc2)C(=O)C(N)=O)c1` (stereo not drawn) [Compound 619, N-(4-amino-3,4-dioxo-1-phenylbutan-2-yl)-5-(2-fluoro-5-methoxyphenyl)isoxazole-4-carboxamide], the IC50 on Human Calpain 1/NS1, at Human Calpain 2/NS1 and on Human Calpain 9/NS1 was less than 3 µM in each case.
`Cn1cc(C(=O)NC(Cc2ccccc2)C(=O)C(N)=O)c(C2CCCC2)n1` (stereo not drawn) [Compound 620, N-(4-amino-3,4-dioxo-1-phenylbutan-2-yl)-3-cyclopentyl-1-methyl-1H-pyrazole-4-carboxamide]: the IC50 is less than 3 µM at Human Calpain 1/NS1, less than 3 µM on Human Calpain 2/NS1 and 3 to 10 µM on Human Calpain 9/NS1.
On to `Cn1cc(C(=O)NC(Cc2ccccc2)C(=O)C(N)=O)c(-c2ccc(Cl)s2)n1` (stereo not drawn) [Compound 621, N-(4-amino-3,4-dioxo-1-phenylbutan-2-yl)-3-(5-chlorothiophen-2-yl)-1-methyl-1H-pyrazole-4-carboxamide], for which the IC50 at Human Calpain 1/NS1, on Human Calpain 2/NS1 and on Human Calpain 9/NS1 was less than 3 µM in each case.
As to `NC(=O)C(=O)C(Cc1ccccc1)NC(=O)c1cn(C(F)F)nc1-c1ccc2ncccc2c1` (stereo not drawn) [Compound 622, N-(4-amino-3,4-dioxo-1-phenylbutan-2-yl)-1-(difluoromethyl)-3-(quinolin-6-yl)-1H-pyrazole-4-carboxamide hydrochloride], the IC50 on Human Calpain 1/NS1, on Human Calpain 2/NS1 and at Human Calpain 9/NS1 was less than 3 µM throughout.
As for `Cn1cc(C(=O)NC(Cc2cccc(C(F)(F)F)c2)C(=O)C(N)=O)c(-c2ccccc2F)n1` (stereo not drawn) [Compound 623, N-(4-amino-3,4-dioxo-1-(3-(trifluoromethyl)phenyl)butan-2-yl)-3-(2-fluorophenyl)-1-methy 1-1H-pyrazole-4-carboxamide], the IC50 on Human Calpain 1/NS1, at Human Calpain 2/NS1 and on Human Calpain 9/NS1 was less than 3 µM each time.
`Cn1cc(C(=O)NC(Cc2ccccc2)C(=O)C(N)=O)c(C2CCCN(C(=O)OC(C)(C)C)C2)n1` (stereo not drawn) [Compound 624, Tert-Butyl 3-(4-((4-amino-3,4-dioxo-1-phenylbutan-2-yl)carbamoyl)-1-methyl-1H-pyrazol-3-yl)piperidine-1-carboxylate]: the IC50 at Human Calpain 1/NS1, at Human Calpain 2/NS1 and at Human Calpain 9/NS1 was less than 3 µM throughout.
